Patent US10973748B2, “Compositions and methods for lightening skin and reducing hyperpigmentation” (Versitech Limited, priority 2016, dated 2021)

How the values were obtained:
melan-a cells = test: Cell survival rate (CCK-8 assay); type: cell-based, murine; conditions: 72 hrs, concentration equal to or lower than 20 μM
Protocol: Murine melan-a cells (an immortalized, non-tumorigenic murine melanocyte cell line) were obtained from Chinese University of Hong Kong. Cells were cultured in RPMI 1640 medium. Culture medium was supplemented with 10% FBS and 1% penicillin-streptomycin and the cells were incubated at 37° C. in 5% CO2. Melan-a cells were incubated with tetradecanoyl phorbol acetate (TPA) at a concentration of 200 nM. The tested chemical agents (e.g., 6-CEPN and Kojic acid) were individually dissolved as a stock solution at a concentration of 100 mM in 100% dimethyl sulfoxide (DMSO). The stock solution was diluted using culture medium to the desired final concentrations immediately prior to use.
Melan-a cells (10,000 cells/well) were plated in 100 μL 96-well multidishes for at least 24 hours (hrs) prior to use. The cells were treated with serial concentrations of tested chemicals for 72 hrs. After the indicated incubation time, cells were washed three times using PBS and then treated with CCK-8 solution (0.5 mg/mL) for 1.5 hours. Absorbance was measured at 490 nm using Victor X4 Multilabel Plate Reader (PerkinElmer, Mass., USA). Values were expressed as the mean cell viability as a percentage of that of the vehicle DMSO (0.1% final volume)-treated cultures.

[1] = tested on: microphthalmia-associated transcription factor (MITF); test: Western blotting of MITF expression in melan-a cells; type: cell-based, murine; conditions: α-MSH, 72 hrs, 20 μM
Protocol: Melan-a cells (3×10^5 cells/well) were seeded in 4 mL of culture medium in a 6-well plate for at least 24 hrs prior to use. The cells were treated with α-MSH (1 μM) alone, α-MSH plus plus different concentration of agents for 72 hrs. The cells were washed with cold PBS and then lysed in 100 μL of RIPA buffer containing 1% Nonidet P-40, 0.1% sodium dodecylsulfate, 0.5% sodium deoxycholate, and 2% protease inhibitor at 4° C. Samples were centrifuged at 14,000 rpm for 30 mins at 4° C., and total proteins in the supernatant were separated. 10 μg of denatured proteins were loaded per lane, and separated by 10% SDS-PAGE gel. Proteins were then transferred to Immobilon-P Transfer Membranes (Millipore Co., Bed-ford, Mass.) by semidry transfer. Membranes were incubated with primary antibodies specific for Tyrosinase, tyrosinase-related protein-1 (TRP1), tyrosinase-related protein-2 (TRP2), and microphthalmia-associated transcription factor (MITF). The blots were subsequently washed and incubated with the appropriate secondary antibodies. Immunoreactive protein bands were visualized with enhanced chemiluminescence western blotting detection reagents and quantified using an ODYSSEY Fc Imaging system. The amounts of protein loaded were normalized against a control protein, β-actin.

[2] = tested on: MelanoDerm (Mel-300-A) epidermal equivalents containing melanocytes; test: Fontana-Masson silver staining of artificial skin model; type: cell-based, human; conditions: day 14, rapamycin 2.5 μM, 6-CEPN 10 μM
Protocol: Epidermal equivalents containing melanocytes (Mel-300-A) were maintained according to the manufacturer's instructions. Mel-300-A tissue was cultured in EPI-100-NMM-113 medium for 14 days. Agents were dissolved in tissue culture medium and changed every other day. The test agents were either (1) rapamycin (2.5 μM), as the positive control in depigmentation, (2) 6-CEPN (10 μM), or (3) 8-CEPQ (5 μM). The concentration of rapamycin used was lower than 6-CEPN and 8-CEPQ, as rapamycin is toxic to cells at higher concentration. Pigmentation of these skin equivalents was compared against treatment of cells with a culture medium only (denoted as “vehicle”). Tissue viability was assessed on day 14 by CCK-8 assay as described in Example 1. On day 14, single tissues were harvested and photographed. The L* parameter was used to evaluate skin lightening or darkening. The lighter the skin, the greater the L* value. ΔL* value was measured by a Chroma Meter CR400 (Konica Minolta) for an evaluation of lightening as a function of time. Three tissues for each treatment were frozen for the Solvable Melanin assay (Bessou-Touya et al., “Chimeric human epidermal reconstructs to study the role of melanocytes and keratinocytes in pigmentation and photoprotection.” Journal of investigative dermatology 111(6):1103-1108 (1998)). Additional tissues were fixed by 10% formanin. For melanin staining in paraffin-embedded tissues, Fontana-Masson silver staining was used as previously detailed (Barbosa et al., “A simple and economical modification of the Masson-Fontana method for staining melanin granules and enterochromaffin cells.” Stain technology 59(4):193-196 (1984)).

[3] = tested on: microtubule-associated protein light chain 3 (LC-3); test: Western blot of LC-3 conversion (autophagy marker); type: cell-based, murine; conditions: melan-a cells, α-MSH and TPA, 72 hrs, 6-CEPN 10 or 20 μM
Protocol: Melan-a cells (3×10^5 cells/well) were seeded in a 6-well plate with 4 mL RPMI 1640 medium and 10% FBS. Melan-a cells were then transfected with 10 nM siRNA against autophagy-related protein 7 (ATG-7) or with the same concentration of a control siRNA, using HiPerfect Transfection Reagent. After 72 hrs of incubation, cell culture medium was replaced. Cells were then treated for 72 hrs with (1) α-MSH (1 μM) and TPA; (2) α-MSH (1 μM), TPA, and 6-CEPN (10 μM); or (3) α-MSH (1 μM), TPA, and 6-CEPN (20 μM). Total protein of cells was collected as described in the Western blotting in Example 2. The expressions of autophagy related proteins ATG-7 and microtubule-associated protein light chain 3 (LC-3) were analyzed by Western blot. LC-3 was selected because it was widely used to monitor autophagy. LC-3 can convert from a cytosolic form (i.e., LC-3 I) to a lipidated form (i.e., LC-3 II), the latter of which is attached to the autophagosome membrane (Mizushima N, et al., Autophagy, 3(6): 542-545 (2007)). ATG-7 is a required component in the conjugation of other autophagy-related proteins (e.g., the conjugation between ATG-12 and […]), which ultimately leads to the formation of autophagosome (“Autophagy Signaling Pathway,” Cell Signaling Technology, revised online October 2012).

O=C1C[C@@H](c2ccc(O)cc2)Oc2cc(O)c(/C=C/c3ccccc3)c(O)c21 [6-CEPN, 6-C-(E-phenylethenyl)-naringenin]
cell survival rate (melan-a cells): no significant decrease | expression of MITF [1]: no clear inhibition | melanin content and distribution (Fontana Masson staining) [2]: significant decrease in the melanin content and distribution | thickness of basal layer of tissue [2]: without causing reduction in the thickness of basal layer of tissue | conversion of LC-3 I to LC-3 II [3]: increased the conversion of LC-3 I to LC-3 II
